According to US12319752B2, “Heparin-binding cationic peptide self-assembling peptide amphiphiles useful against drug-resistant bacteria” (priority 2016, dated 2025):
Residues, ends and D or L forms follow the SMILES beside them. *: point of attachment. Palmitoyl = CCCCCCCCCCCCCCCC(=O)*

Columns and labels:
MRSA = experiment: Live/dead bacterial viability assay; format: cell-based, methicillin-resistant S. aureus (MRSA); settings: 4 h
Description: To further investigate bacteria viability after treatment with ACA-PA, the live/dead assay was used to confirm the antibacterial actions of ACA-PA. Dead bacteria with disrupted membrane were stained a first color, whereas live bacteria were stained with a second color fluorescence. A large amount of robust MRSA bacteria in the untreated control sample appeared a second color and in spherical shapes (FIG. 10A). […] This antibacterial activity was dependent on the concentration of PA, yet was not determined by peptide self-assembly. Nonetheless, Gram-negative MDR E. coli responded to the treatment of ACA-PA differently from Gram-positive MRSA.
The live/dead bacterial viability assay was conducted to further assess the bactericidal efficacy of ACA-PA using the LIVE/DEAD BacLight Bacterial Viability Kits (Kits 71007, Molecular Probes, Eugene, OR, USA). MRSA and MDR E. coli bacteria (100 μl, 10^6 CFU/mL) were incubated with 80 μM and 40 μM of peptide in 3% TSB media at 37° C. for 4 h on a 96-well plate, and the control samples of bacteria were incubated in 3% TSB media only. […] The live bacteria stained fluorescent a second color (SYTO9 nucleic acid stain), whereas the dead bacteria with disrupted membranes stained fluorescent a first color (propidium iodide, PI).

[1] = Cytotoxicity, MTS cell viability assay; format: cell-based, human; settings: human, human dermal fibroblasts (HDF, Detroit 551, ATCC CCL-110)
Experimental: (§1) To evaluate the cytotoxicity of the peptides, human dermal fibroblasts (HDF) were treated for 24 h, and cell viability was determined via MTS assays (FIG. 13).
(§2) Human dermal fibroblast cells (HDF, Detroit 551, ATCC #CCL-110) were cultured in Dulbecco's modified Eagle medium (DMEM; Fisher, Pittsburgh, PA) supplemented with 10% fetal bovine serum (FBS) and 1% penicillin/streptomycin for 24 h. All cells were cultured to 90% confluence in a 37° C., humidified, 5% CO2/95% air environment. Cells at passage numbers of 4-7 were used in these experiments.
(§3) The MTS cell viability assay kit (Promega, Madison, WI, USA) was used to determine cytotoxicity of the peptides. First, HDF cells were seeded on a 96-well plate at a cell density of 5,000 cells/well (equal to 15,385 cells/cm^2), and were incubated overnight for cell adhesion. After overnight incubation, the cell medium in each well was replaced by 100 μL of cell culture medium containing various concentrations of peptides (20 μM to 100 μM). The control samples were cells incubated in cell culture medium only. After 24 h, the treatment medium in each well was removed. The cells were washed with phosphate buffered saline (PBS, pH=7.4, Fisher, PA, USA) and 100 μL of fresh cell culture medium was added to each well, followed by the addition of 20 μL of the MTS reagent. After the cells were incubated for 2.5 h, the absorbance was measured at a wavelength of 490 nm by a spectrophotometer (SpectraMax M3, Molecular Devices, Molecular Devices, Sunnyvale, CA, USA). To estimate the cell numbers in each well, a standard curve expressing the linear correlation between different cell densities and optical densities (R^2>0.95) was plotted, and the cell numbers were determined with this standard curve from the OD490 value recorded in each sample. The cell viability of each sample was calculated by: Cell viability=[(cell density per mL of treated sample)/(cell density per mL of control sample)]×100%. Data were expressed by standard error of the mean (±S.E.M.) and N=3, *p<0.05 compared with control samples.

[2] = system: human dermal fibroblasts (HDF); experiment: Cytotoxicity, MTS cell viability assay; format: cell-based
Experimental: as §1, §2, §3

MDR E. coli = experiment: Viable colony count assay (bactericidal effect, 4 h); format: cell-based, multidrug-resistant E. coli (MDR E. coli, ATCC #BAA-2471)
Experimental: (§4) The bactericidal effects of the peptides were examined using a viable colony count assay as well as the live/dead staining assay. For the viable colony count assay, bacteria were treated with peptides for 4 h and the resulting viable bacterial density of each sample was expressed by log10[CFU/mL]. For the Gram-positive bacteria tested, the decrease in bacterial density was dependent on the concentration of the ACA-PA (FIG. 8A). […] As for Gram-negative E. coli and MDR E. coli bacteria (FIG. 8B), the ACA nanorods, wherein the PA were added at a concentration above their CMC, had potent bactericidal effects. For example, the ACA nanorods at concentrations over 60 μM reduced the colony forming units of Gram-negative bacteria by about a five log unit reduction after 4 h compared with the untreated negative control sample.
In addition, ACA-PA were mixed with heparin at various weight ratios (1:1, 1:2, and 1:3 ACA-PA to heparin ratios) to block the Cardin motif groups on the PA. The ACA-PA concentration used to treat bacteria (MRSA and MDR E. coli) was a constant 80 μM and only varied in the concentration of heparin.
(§5) The viable count assay was performed to quantify the bactericidal activity of each peptide. Stock solutions of peptides were diluted in 3% TSB media to concentrations ranging from 20 μM to 100 μM immediately before experiments. Heparin-ACA-PA were also prepared by mixing the ACA-PA stock solution with heparin (sodium salt from porcine intestinal mucosa, Sigma, St. Louis, MO) to 1:1, 1:2 and 1:3 weight ratios in water, and a final concentration of ACA-PA in the heparin-ACA-PA at each heparin weight ratio was adjusted to 80 μM for each experiment. The bacteria (10^6 CFU/mL) were incubated with peptides at 37° C. for 4 h. After incubation, serial dilutions of samples were plated on TSB agar and then incubated at 37° C. overnight. The colonies from each spot were manually counted, and the CFU number for each sample was determined. Experiments were conducted in triplicate and results were expressed as the log 10 values of the CFU number in each sample. Data were expressed by stand error of the mean (±S.E.M.) and N=3, *p<0.05 compared with control samples and #p<0.05 compared with bacteria treated with 40 μM of ACA-PA.

S. aureus = experiment: as above; format: cell-based, Staphylococcus aureus (ATCC #25923)
Experimental: as §4, §5

For `CCCCCCCCCCCCCCCC(=O)N[C@H](C(=O)N[C@H](C(=O)N[C@H](C(=O)N[C@H](C(=O)N[C@@H](CCCCN)C(=O)N[C@@H](CCCCN)C(=O)N[C@@H](CCCCN)C(=O)N[C@@H](CCCCN)C(=O)NCC(=O)N[C@@H](C)C(=O)N[C@@H](CCCCN)C(=O)N[C@@H](CCCCN)C(=O)N[C@@H](C)C(=O)N[C@@H](CCCNC(=N)N)C(=O)N[C@@H](C)C(=O)N[C@@H](C)C(=O)N[C@@H](CCCCN)C(=O)N[C@@H](CCCCN)C(=O)N[C@@H](C)C(=O)N[C@@H](CCCNC(=N)N)C(=O)N[C@@H](C)C(=O)O)C(C)C)C(C)C)C(C)C)C(C)C` [ACA-PA, C16-V4K4G(AKKARA)2 (SEQ ID NO: 7)] (Palmitoyl-VVVVKKKKGAKKARAAKKARA-OH; N-terminus and C-terminus assumed), the “bacterial viability (live/dead staining)” value (MRSA; 40 μM) was “markedly reduced MRSA viability”, the “bacterial viability (live/dead staining)” value (MRSA; 80 μM) was “coverage of dead bacteria increased with low density of live bacteria” and the viability at 24 h, 100 µM [1] was greater than 50%. The cytotoxicity [2] was “moderate cytotoxicity”, the “decrease in bacteria density” value (MDR E. coli; MDR E. coli (Gram-negative), 60 to 100 μM) was 10,000 fold and the “number of viable bacteria colonies after mixing with heparin” value (MDR E. coli; MDR E. coli, 80 μM ACA-PA, 1:1, 1:2, 1:3 ACA-PA to heparin weight ratios) was “positively proportional to the amount of heparin added”. The “toxicity towards bacteria after mixing with heparin” value (MDR E. coli; MDR E. coli, 80 μM ACA-PA, 1:3 ACA-PA to heparin weight ratio, 4 h) was “no toxicity towards bacteria”, the “reduction in bacteria density” value (MDR E. coli; MDR E. coli, concentrations lower than CMC, 4 h) was “no significant reduction in Gram-negative bacteria density” and the “reduction of colony forming units” value (MDR E. coli; MDR E. coli, over 60 μM, 4 h, vs untreated control) was “five”. For the same compound, the “decrease in bacteria density” value (S. aureus; S. aureus (Gram-positive), 60 to 100 μM) was roughly 100 fold, the “decline in bacteria density” value (S. aureus; S. aureus, over 80 μM, 4 h) was 100 fold and the “decrease of colony forming units” value (S. aureus; S. aureus, over 80 μM, 4 h) was “two”.
